Data from the NIST ThermoML archive (doi:10.1021/je020131a).

Experiments:
[1] = xn = mol fraction of the nth substance listed; conditions: 101.3 kPa, Liquid, Falling or rolling sphere viscometry
[2] = Liquid; for viscosity: 101.3 kPa, Falling or rolling sphere viscometry; for mass density: 101.33 kPa, Vibrating tube method

CCOC(=O)OCC [diethyl carbonate] + CCCCCCC
[1]
Conditions	viscosity [mPa·s]
293.15 K, x1 = 0.049	0.41
293.15 K, x1 = 0.0983	0.413
293.15 K, x1 = 0.1973	0.427
293.15 K, x1 = 0.297	0.449
293.15 K, x1 = 0.3989	0.477
293.15 K, x1 = 0.4952	0.508
293.15 K, x1 = 0.601	0.549
293.15 K, x1 = 0.7014	0.594
293.15 K, x1 = 0.8012	0.647
293.15 K, x1 = 0.8985	0.707
293.15 K, x1 = 0.9482	0.744
293.15 K, x1 = 1	0.795
298.15 K, x1 = 0.0509	0.39
298.15 K, x1 = 0.0977	0.394
298.15 K, x1 = 0.1973	0.41
298.15 K, x1 = 0.3052	0.43
298.15 K, x1 = 0.3949	0.453
298.15 K, x1 = 0.5028	0.486
298.15 K, x1 = 0.5924	0.516
298.15 K, x1 = 0.7096	0.565
298.15 K, x1 = 0.8054	0.612
298.15 K, x1 = 0.9028	0.673
298.15 K, x1 = 0.9495	0.709
298.15 K, x1 = 1	0.749
303.15 K, x1 = 0.0506	0.386
303.15 K, x1 = 0.1001	0.389
303.15 K, x1 = 0.1991	0.399
303.15 K, x1 = 0.301	0.416
303.15 K, x1 = 0.4058	0.438
303.15 K, x1 = 0.5006	0.464
303.15 K, x1 = 0.6133	0.501
303.15 K, x1 = 0.7037	0.539
303.15 K, x1 = 0.8029	0.584
303.15 K, x1 = 0.8988	0.637
303.15 K, x1 = 0.946	0.667
303.15 K, x1 = 1	0.699
313.15 K, x1 = 0.0493	0.337
313.15 K, x1 = 0.0986	0.344
313.15 K, x1 = 0.1975	0.362
313.15 K, x1 = 0.2962	0.381
313.15 K, x1 = 0.3992	0.403
313.15 K, x1 = 0.4943	0.426
313.15 K, x1 = 0.5992	0.456
313.15 K, x1 = 0.699	0.49
313.15 K, x1 = 0.8009	0.528
313.15 K, x1 = 0.8984	0.573
313.15 K, x1 = 0.9508	0.599
313.15 K, x1 = 1	0.623

CCOC(=O)OCC [diethyl carbonate]
[2]
Conditions	mass density [kg/m3]	viscosity [mPa·s]
293.15 K	–	0.795
298.15 K	969.1	0.749
303.15 K	–	0.699
313.15 K	–	0.623

C1CCCCC1 [cyclohexane]
[2]
Conditions	mass density [kg/m3]	viscosity [mPa·s]
293.15 K	–	0.976
298.15 K	773.8	0.894
303.15 K	–	0.813
313.15 K	–	0.697

COC(=O)OC [dimethyl carbonate]
[2]
Conditions	mass density [kg/m3]	viscosity [mPa·s]
293.15 K	–	0.626
298.15 K	1063.5	0.585
303.15 K	–	0.536
313.15 K	–	0.494

COC(=O)OC [dimethyl carbonate] + CCCCCCCC
[1]
Conditions	viscosity [mPa·s]
293.15 K, x1 = 0.0513	0.532
293.15 K, x1 = 0.0997	0.524
293.15 K, x1 = 0.2027	0.508
293.15 K, x1 = 0.3063	0.506
293.15 K, x1 = 0.3994	0.502
293.15 K, x1 = 0.5123	0.507
293.15 K, x1 = 0.6078	0.512
293.15 K, x1 = 0.7137	0.524
293.15 K, x1 = 0.8055	0.541
293.15 K, x1 = 0.9061	0.575
293.15 K, x1 = 0.9516	0.596
293.15 K, x1 = 1	0.626
298.15 K, x1 = 0.0558	0.504
298.15 K, x1 = 0.096	0.498
298.15 K, x1 = 0.1488	0.489
298.15 K, x1 = 0.2289	0.478
298.15 K, x1 = 0.2947	0.477
298.15 K, x1 = 0.4216	0.474
298.15 K, x1 = 0.4883	0.475
298.15 K, x1 = 0.5931	0.479
298.15 K, x1 = 0.6867	0.491
298.15 K, x1 = 0.7879	0.509
298.15 K, x1 = 0.8873	0.541
298.15 K, x1 = 0.9502	0.561
298.15 K, x1 = 1	0.585
303.15 K, x1 = 0.0519	0.478
303.15 K, x1 = 0.0827	0.474
303.15 K, x1 = 0.1947	0.457
303.15 K, x1 = 0.2829	0.452
303.15 K, x1 = 0.3948	0.45
303.15 K, x1 = 0.4942	0.448
303.15 K, x1 = 0.5964	0.45
303.15 K, x1 = 0.6983	0.46
303.15 K, x1 = 0.7886	0.473
303.15 K, x1 = 0.8946	0.5
303.15 K, x1 = 0.9545	0.52
303.15 K, x1 = 1	0.536
313.15 K, x1 = 0.0512	0.432
313.15 K, x1 = 0.1005	0.43
313.15 K, x1 = 0.186	0.419
313.15 K, x1 = 0.301	0.413
313.15 K, x1 = 0.4072	0.409
313.15 K, x1 = 0.5002	0.41
313.15 K, x1 = 0.6042	0.417
313.15 K, x1 = 0.709	0.43
313.15 K, x1 = 0.7993	0.446
313.15 K, x1 = 0.8465	0.459
313.15 K, x1 = 0.9524	0.485
313.15 K, x1 = 1	0.494
